In ChEMBL document CHEMBL1614630, “Extrapolation of preclinical pharmacokinetics and molecular feature analysis of "discovery-like" molecules to predict human pharmacokinetics” (Drug Metab Dispos, 2006):

Key:
[1] = Volume of distribution at steady state in rat after iv administration; details: in vivo
[2] = Volume of distribution at steady state in dog after iv administration; details: in vivo
[3] = Volume of distribution at steady state in monkey after iv administration; details: macaca, in vivo
[4] = Clearance in rat after iv administration; details: in vivo
[5] = Clearance in dog after iv administration; details: in vivo
[6] = Clearance in monkey after iv administration; details: macaca, in vivo
[7] = Clearance in human after iv administration; details: in vivo
[8] = Volume of distribution at steady state in human after iv administration; details: in vivo

| SMILES | Vdss [1] | Vd [2] | Vd [3] | clearance [4] | clearance [5] | clearance [6] | clearance [7] | Vd [8] |
| --- | --- | --- | --- | --- | --- | --- | --- | --- |
| O=C(CCCN1CCC(O)(c2ccc(Cl)cc2)CC1)c1ccc(F)cc1 [HALOPERIDOL] | 10.4 L/kg | 37 L/kg | 6.6 L/kg | – | – | – | – | – |
| COC(=O)C1=C(C)NC(C)=C(C(=O)OC)C1c1ccccc1[N+](=O)[O-] [NIFEDIPINE] | 0.13 L/kg | 1.15 L/kg | 0.5 L/kg | – | – | – | – | – |
| CCN1CCC[C@H]1CNC(=O)c1c(OC)ccc(Br)c1OC [REMOXIPRIDE] | 4.5 L/kg | 1.6 L/kg | 1.1 L/kg | 170 mL/min/kg | 4.9 mL/min/kg | 11.8 mL/min/kg | 1.7 mL/min/kg | 0.7 L/kg |
| Cc1ncc2n1-c1ccc(Cl)cc1C(c1ccccc1F)=NC2 [MIDAZOLAM] | 1.6 L/kg | 3 L/kg | 1.5 L/kg | 67 mL/min/kg | 27 mL/min/kg | 24.2 mL/min/kg | 6.6 mL/min/kg | 1.1 L/kg |
| CC#C[C@]1(O)CC[C@H]2[C@@H]3CCC4=CC(=O)CCC4=C3[C@@H](c3ccc(N(C)C)cc3)C[C@@]21C [MIFEPRISTONE] | 4.3 L/kg | 10.5 L/kg | 32.5 L/kg | 50 mL/min/kg | 15.6 mL/min/kg | 24.2 mL/min/kg | 0.33 mL/min/kg | 0.3 L/kg |
| CN(C)CCCN1c2ccccc2Sc2ccc(Cl)cc21 [CHLORPROMAZINE] | 29.1 L/kg | 16.3 L/kg | 8 L/kg | 61 mL/min/kg | 53 mL/min/kg | 24.6 mL/min/kg | 4.3 mL/min/kg | 11.2 L/kg |
| Cc1cc(C)c(/C=C2\C(=O)Nc3ccccc32)[nH]1 [SEMAXANIB] | 1.6 L/kg | 1.4 L/kg | 1.45 L/kg | 45 mL/min/kg | 52 mL/min/kg | 25.7 mL/min/kg | 14 mL/min/kg | 0.98 L/kg |
| COc1ccc(Cl)cc1[C@]1(F)C(=O)Nc2cc(C(F)(F)F)ccc21 [FLINDOKALNER] | 3.4 L/kg | 3.2 L/kg | 5.4 L/kg | 29.9 mL/min/kg | 3.1 mL/min/kg | 40.2 mL/min/kg | 7.63 mL/min/kg | 2.35 L/kg |
| C[C@H]1NCc2cc(-c3ccc4c(=O)c(C(=O)O)cn(C5CC5)c4c3OC(F)F)ccc21 [GARENOXACIN] | 0.9 L/kg | 1.3 L/kg | 1 L/kg | 12.1 mL/min/kg | 2.4 mL/min/kg | 3.4 mL/min/kg | 1.2 mL/min/kg | 1 L/kg |
| COc1ccc([C@@H]2Sc3ccccc3N(CCN(C)C)C(=O)[C@@H]2OC(C)=O)cc1 [DILTIAZEM] | 3.6 L/kg | 21.4 L/kg | 3.5 L/kg | 82.3 mL/min/kg | 59 mL/min/kg | 34.5 mL/min/kg | 12 mL/min/kg | – |
| COc1ccc([C@H](CC(=O)O)N2CCN(CCCc3ccc4c(n3)NCCC4)C2=O)cn1 | 1.5 L/kg | 0.9 L/kg | 0.3 L/kg | – | 5.4 mL/min/kg | 9 mL/min/kg | 1 mL/min/kg | 0.2 L/kg |
| CCCN1CCC[C@@H](c2cccc(S(C)(=O)=O)c2)C1 | 1.5 L/kg | 2.5 L/kg | 1.4 L/kg | 46.7 mL/min/kg | 36.7 mL/min/kg | 33.3 mL/min/kg | 7.2 mL/min/kg | 2.2 L/kg |
| CCOc1cc(Cc2cnc(N)nc2N)cc(OCC)c1-n1cccc1 [EPIROPRIM] | 4.6 L/kg | 8.3 L/kg | 5.1 L/kg | 45 mL/min/kg | 10.7 mL/min/kg | 30.6 mL/min/kg | 3.5 mL/min/kg | 2.5 L/kg |
| CCC1=C[C@@H]2CN(C1)Cc1c([nH]c3ccccc13)[C@@](C(=O)OC)(c1cc3c(cc1OC)N(C)[C@H]1[C@@](O)(C(=O)OC)[C@H](OC(C)=O)[C@]4(CC)C=CCN5CC[C@]31[C@@H]54)C2 [VINORELBINE] | 24.4 L/kg | 49.6 L/kg | 11.4 L/kg | 31.7 mL/min/kg | 20 mL/min/kg | 23.6 mL/min/kg | 21 mL/min/kg | 75.6 L/kg |
| OC(CCN1CCCCC1)(c1ccccc1)C1CC2C=CC1C2 (stereo not given) [BIPERIDEN] | 14 L/kg | 9.5 L/kg | 3.6 L/kg | – | 27 mL/min/kg | 21.9 mL/min/kg | 15.3 mL/min/kg | 6.2 L/kg |
| CC1COc2c(N3CCN(C)CC3)c(F)cc3c(=O)c(C(=O)O)cn1c23 (stereo not given) [OFLOXACIN] | 1.66 L/kg | 1.15 L/kg | 1.6 L/kg | 26.3 mL/min/kg | 2.65 mL/min/kg | 7.5 mL/min/kg | 4.53 mL/min/kg | 1.78 L/kg |
